Measurements reported in patent US20240165202A1, “USES OF FGF21 POLYPEPTIDES AND FUSION POLYPEPTIDES THEREOF” (SUNSHINE LAKE PHARMA CO., LTD., priority 2021, published 2024).

Experiments:
[1] = test system: high-fat diet induced C57BL/6 mice model; experiment: High-fat diet induced C57BL/6 mice: liver histopathology NAS and fibrosis scores; type: in vivo; settings: 10 nmol/kg (semaglutide QD, dual target 1# BIW), 16 weeks, Mean ± SD, n = 6-7
Description: (§1) After 16 weeks of high-fat diet feeding (D12492, Research Diets, Inc., New Brunswick, NJ), C57BL/6 mice (purchased from Hunan SJA Laboratory Animal Co., Ltd.) were randomly divided into vehicle group or treatment group according to the measured blood glucose and body weight. The study included control group with normal diet, high-fat diet Model group was administrated with vehicle PBS, subcutaneous injection of semaglutide once a day (QD) 10 nmol/kg, dual target 1 # was administrated twice weekly (BIW), the low dose was 3 nmol/kg and the high dose was 10 nmol/kg, 7 animals in each group. The drug groups were administrated the corresponding drugs according to the administration frequency for 16 consecutive weeks, and the high-fat diet was continued during the administration period until the end of the experiment. The random blood glucose, body weight and intraperitoneal glucose tolerance IPGTT of mice were monitored.
The left lobe of the liver obtained by dissection in Example 5 was immersed in a 50 mL centrifuge tube filled with formalin to prepare liver disease sections, and the formalin liver tissue was subjected to wax block making, sectioning, HE staining, and HE staining slices were mailed to Suzhou KCl Co., Ltd. for NAS scoring; fibrosis was assessed by Sirius red staining, and the scores were scored according to the severity of fibrosis, with a score of 1-3. Liver histopathological changes were observed under light microscope and NAS/fibrosis scores were performed.

[2] = test system: high-fat-induced C57BL/6 mice model; experiment: High-fat diet induced C57BL/6 mice: serum lipids, ALT/AST, liver weight, liver homogenate lipids; type: in vivo; settings: 16th week of administration
Description: as §1
(§2) At the end of the experiment of Example 4, that is, the 16th week of administration, the animals were fasted overnight and could drink water. After the animals were weighed, the orbital blood was collected, serum was separated, and serum lipids (TG (triglyceride), TC (total cholesterol)) and liver function indexes ALT (alanine aminotransferase)/AST (aspartate aminotransferase) were detected by an automatic biochemical analyzer. Serum insulin levels were detected by Elisa kit, and the HOMA-IR index was calculated according to the formula, that is, HOMA-IR=fasting blood glucose (blood glucose value at 0 time of IPGTT in the 16th week)×fasting insulin/22.5. After the blood was collected, the liver, subcutaneous fat, epididymal fat and perirenal fat were dissected and weighed. About 40-60 mg of liver tissue was weighed and put into a homogenization tube, 1 mL of absolute ethanol was added for homogenization, then the homogenate was taken and centrifuged at 4° C., 3,500 rpm for 10 min. The supernatant was taken, and the concentrations of TG and TC in the supernatant were detected by an automatic biochemical analyzer, and then the contents of TG and TC were calculated according to the weighed liver weight

[3] = test system: high-fat-induced C57BL/6 mice model; experiment: High-fat diet induced C57BL/6 mice, 16 weeks dosing: random blood glucose, IPGTT, fasting glucose, insulin, HOMA-IR, body weight, fat mass; type: in vivo
Description: as §1, §2

[4] = test system: ob/ob mice nonalcoholic steatohepatitis (NASH) model; experiment: ob/ob mice high-fat diet NASH model, 6 weeks dosing: blood glucose and body weight; type: in vivo; settings: 10 nmol/kg
Experimental: (§3) 70 Male ob/ob mice (Changzhou Cavens Laboratory Animal Co., Ltd.) weighed about 43-45 g were fed with high-fat diet (D12492, Research Diets, Inc., New Brunswick, NJ) for 9 weeks to establish a nonalcoholic steatohepatitis (NASH) model. 3 Weeks after HFD feeding, the therapeutic efficacy of the compounds dual target fusion protein 1 #, Fc-FGF21 (single target 1 #) and Dulaglutide were tested after 6 weeks of dosing. The experimental animals were randomly divided into 5 groups according to body weight and blood glucose after […] of HFD feeding: the model group (group-1, n=10), the dual target fusion protein 1 #-3 nmol/kg group (group-2, n=10); the dual target fusion protein 1 #-10 nmol/kg group (group-3, […]); Fc-FGF21-10 nmol/kg group (group-4, n=10); Dulaglutide-10 nmol/kg (group-5, n=10). The model group was administrated PBS. The groups of dual target fusion protein 1 #, Fc-FGF21, and Dulaglutide were administrated twice a week for a total of 6 weeks. Feed intake, water intake and body weight of animals were recorded every two days after the start of HFD feeding until the end of the experiment. Blood glucose was measured at 0, 2, 7, 24, 48, 72 hours after the first administration, and then twice a week. At the end of the experiment, the animals were fasted to detect fasting blood glucose.

[5] = test system: ob/ob mice nonalcoholic steatohepatitis (NASH) model; experiment: ob/ob mice high-fat diet NASH model, 6 weeks dosing: liver pathological scores; type: in vivo; settings: 10 nmol/kg twice a week, Mean ± SEM, n = 10
Experimental: as §3

[6] = test system: ob/ob mice nonalcoholic steatohepatitis (NASH) model; experiment: ob/ob mice high-fat diet NASH model, 6 weeks dosing: serum lipids, liver weight, liver function, liver lipids; type: in vivo; settings: 10 nmol/kg
Experimental: as §3

[7] = mouse models; cited from earlier work
[8] = 10 nmol/kg (semaglutide QD, dual target 1# BIW), 16 weeks, Mean ± SD, n = 6-7

With Semaglutide the NAS total score [1] was 0.0 ± 0.0, the “Fibrosis Manual Score” value ([1]; Sirius red, score 1-3) was 1.5 ± 0.5 and the Balloon degeneration ([1]; score) was 0.0 ± 0.0. The Inflammation ([1]; score) was 0.0 ± 0.0, the Liver steatosis ([1]; score) was 0.0 ± 0.0 and the “TG in liver homogenate compared with the Model” value [2] was “significantly reduce”. The “liver absolute weight compared with the Model” value [2] was “significantly reduce”, the “serum ALT level compared with the Model” value [2] was “significantly reduce” and the “serum AST level compared with the Model” value [2] was “significantly reduce”. The “serum TC compared with Model” value [2] was “significantly reduce”, the “serum TG compared with Model” value [2] was “significantly reduce” and the Epididymal fat [3, 8] was 1.0 ± 0.5 g. The Perirenal fat [3, 8] was 0.6 ± 0.6 g, the Subcutaneous fat [3, 8] was 0.9 ± 1.0 g and the “Total Fat” value [3, 8] was 2.6 ± 2.1 g. The weight loss ([3]; 10 nmol/kg, 16 weeks) was 24.3%, the “blood glucose AUCO-72h after the first administration, compared with the Model group” value ([3]; 10 nmol/kg, p<0.05) was “significantly reduce” and the “body weight growth rate compared with the Model group” value ([3]; 16 weeks, P<0.001) was “significantly reduce”. The “insulin level compared with Model” value ([3]; end of experiment, serum, P<0.001) was “significantly reduce”, the “HOMA-IR index compared with Model” value ([3]; end of experiment, P<0.001) was “significantly reduce” and the “IPGTT: blood glucose after glucose administration and area under the blood glucose curve, compared with Model” value ([3]; weeks 2, 8 and 16, 30-90 min or 15-90 min after glucose) was “significantly reduce”.

In the case of Dulaglutide, the “weight growth rate compared with the model group” value ([4]; D1 to D43) is reported as “decreased significantly”, the “average weight loss rate” value ([4]; D1 to D43, p<0.01 or 0.001) is reported as 8.9% and the “blood glucose level versus model group” value ([4]; after 5 days, P>0.05) is reported as “less different from that of the model group”. The “Inflammatory infiltration Scores” value [5] was 0.57 ± 0.13, the “Liver ballooning Scores” value [5] was 0.43 ± 0.26 and the NAS scores [5] was 3.80 ± 0.41. The “Steatosis Scores” value [5] was 2.80 ± 0.07, the “level of serum TG compared with the model group” value [6] was “significantly decreased” and the “serum TC level compared with the model group” value [6] was “not significantly decreased”.

B1: FGF21: member of the FGF family (fibroblast growth factors); native FGF21 with short half-life (protein, UniProt Q9NSA1 29-209, looked up)
Fibroblast growth factor 21: HPIPDSSPLLQFGGQVRQRYLYTDDAQQTEAHLEIREDGTVGGAADQSPESLLQLKALKPGVIQILGVKTSRFLCQRPDGALYGSLHFDPEACSFRELLLEDGYNVYQSEAHGLPLHLPGNKSPHRDPAPRGPARFLPLPGLPPALPEPPGILAPQPPDVGSSDPLSMVGPSQGRSPSYAS
For B1, the half-life [7] is given as “about 1 h”.
